Assay results reported in patent US20100099561A1, “HETEROBICYCLIC ALKYLTHIO-BRIDGED ISOXAZOLINES” (E.I. DU PONT DE NEMOURS AND COMPANY, priority 2008, published 2010).

Key:
Assay type in all cases: in vivo
[1] = system: goosegrass (Eleusine indica); experiment: Test B preemergence, goosegrass; conditions: scale 0 to 100
In short: (§1)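 Seeds sown in loam–sand blend and treated preemergence with compounds in a non-phytotoxic solvent mixture containing surfactant. Plants kept in greenhouse 13–15 days, then visually rated against controls on a 0 (no effect) to 100 (complete control) scale.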

[2] = system: blackgrass (Alopecurus myosuroides); experiment: Test B preemergence, blackgrass; conditions: scale 0 to 100
In short: as §1

[3] = system: yellow nutsedge (Cyperus esculentus); experiment: Test B preemergence, yellow nutsedge; conditions: scale 0 to 100
In short: as §1

[4] = system: woolly cupgrass (Eriochloa villosa); experiment: Test B preemergence, woolly cupgrass; conditions: scale 0 to 100
In short: as §1

[5] = system: pigweed (Amaranthus retroflexus); experiment: Test A postemergence, pigweed; conditions: 0 to 100 scale (0 no effect, 100 complete control)
In short: (§2)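 Visual injury scored 0 (no effect) to 100 (complete control) against untreated plants roughly ten days after greenhouse treatment. Postemergence sprays hit one- to two-leaf plants 2–10 cm high; preemergence was a directed spray onto loam–sand soil, both using surfactant-containing solvent formulations.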

wild oat (Avena fatua) = experiment: Test B preemergence, wild oat; conditions: scale 0 to 100
In short: as §1

[6] = system: wheat (Triticum aestivum); experiment: Test B preemergence, wheat; conditions: Preemergence, scale 0 to 100
In short: as §1

[7] = system: morningglory (Ipomoea spp.); experiment: Test A postemergence, morningglory; conditions: 0 to 100 scale (0 no effect, 100 complete control)
In short: as §2

[8] = system: giant foxtail (Setaria faberi); experiment: Test A preemergence, giant foxtail; conditions: 0 to 100 scale (0 no effect, 100 complete control)
In short: as §2

[9] = system: giant foxtail (Setaria faberi); experiment: Test A postemergence, giant foxtail; conditions: 0 to 100 scale (0 no effect, 100 complete control)
In short: as §2

[10] = system: bermudagrass (Cynodon dactylon); experiment: Test B preemergence, bermudagrass; conditions: scale 0 to 100
In short: as §1

[11] = system: green foxtail (Setaria viridis); experiment: Test B preemergence, green foxtail; conditions: scale 0 to 100
In short: as §1

[12] = system: sunflower (common oilseed sunflower, Helianthus annuus); experiment: Test B preemergence, sunflower; conditions: Preemergence, scale 0 to 100
In short: as §1

[13] = system: catchweed bedstraw (Galium aparine); experiment: Test B preemergence, catchweed bedstraw; conditions: scale 0 to 100
In short: as §1

[14] = system: velvetleaf (Abutilon theophrasti); experiment: Test B preemergence, velvetleaf; conditions: Preemergence, scale 0 to 100
In short: as §1

[15] = system: large crabgrass (Digitaria sanguinalis); experiment: Test B preemergence, large crabgrass; conditions: scale 0 to 100
In short: as §1

[16] = system: ragweed (common ragweed, Ambrosia elatior); experiment: Test B preemergence, ragweed; conditions: scale 0 to 100
In short: as §1

corn (Zea mays) = experiment: Test A postemergence, corn; conditions: 0 to 100 scale (0 no effect, 100 complete control)
In short: as §2

[17] = system: pigweed (Amaranthus retroflexus); experiment: Test B preemergence, pigweed; conditions: scale 0 to 100
In short: as §1

[18] = system: cocklebur (Xanthium strumarium); experiment: Test B preemergence, cocklebur; conditions: scale 0 to 100
In short: as §1

[19] = system: downy bromegrass (Bromus tectorum); experiment: Test B preemergence, downy bromegrass; conditions: scale 0 to 100
In short: as §1

CC1(C)CC(S(=O)(=O)Cc2c(C(F)(F)Cl)nc3n(c2=O)CCC3)=NO1 [Compound 18]
Plant response rating, Goosegrass ([1]; 16 g ai/ha): 0
Plant response rating, Goosegrass ([1]; 31 g ai/ha): 95
Plant response rating, Goosegrass ([1]; 62 g ai/ha): 98
Plant response rating, Goosegrass ([1]; 125 g ai/ha): 98
Plant response rating, Blackgrass ([2]; 16 g ai/ha): 0
Plant response rating, Blackgrass ([2]; 31 g ai/ha): 0
Plant response rating, Blackgrass ([2]; 62 g ai/ha): 10
Plant response rating, Blackgrass ([2]; 125 g ai/ha): 98
Plant response rating, Nutsedge, Yellow ([3]; 16 g ai/ha): 0
Plant response rating, Nutsedge, Yellow ([3]; 31 g ai/ha): 0
Plant response rating, Nutsedge, Yellow ([3]; 62 g ai/ha): 20
Plant response rating, Nutsedge, Yellow ([3]; 125 g ai/ha): 45
Plant response rating, Cupgrass, Woolly ([4]; 16 g ai/ha): 0
Plant response rating, Cupgrass, Woolly ([4]; 31 g ai/ha): 20
Plant response rating, Cupgrass, Woolly ([4]; 62 g ai/ha): 65
Plant response rating, Cupgrass, Woolly ([4]; 125 g ai/ha): 95
Plant response rating, Pigweed ([5]; 125 g ai/ha): 30
Plant response rating, Pigweed ([5]; 500 g ai/ha): 40
Plant response rating, Oat, Wild (wild oat (Avena fatua); 16 g ai/ha): 0
Plant response rating, Oat, Wild (wild oat (Avena fatua); 31 g ai/ha): 0
Plant response rating, Oat, Wild (wild oat (Avena fatua); 62 g ai/ha): 0
Plant response rating, Oat, Wild (wild oat (Avena fatua); 125 g ai/ha): 45
Plant response rating, Wheat ([6]; 16 g ai/ha): 0
Plant response rating, Wheat ([6]; 31 g ai/ha): 0
Plant response rating, Wheat ([6]; 62 g ai/ha): 50
Plant response rating, Morningglory ([7]; 125 g ai/ha): 30
Plant response rating, Morningglory ([7]; 500 g ai/ha): 60
Plant response rating, Foxtail, Giant ([8]; 125 g ai/ha): 90
Plant response rating, Foxtail, Giant ([8]; 500 g ai/ha): 100
Plant response rating, Foxtail, Giant ([9]; 125 g ai/ha): 70
Plant response rating, Foxtail, Giant ([9]; 500 g ai/ha): 80
Plant response rating, Bermudagrass ([10]; 16 g ai/ha): 0
Plant response rating, Bermudagrass ([10]; 31 g ai/ha): 98
Plant response rating, Bermudagrass ([10]; 62 g ai/ha): 100
Plant response rating, Bermudagrass ([10]; 125 g ai/ha): 100
Plant response rating, Foxtail, Green ([11]; 16 g ai/ha): 30
Plant response rating, Foxtail, Green ([11]; 31 g ai/ha): 80
Plant response rating, Foxtail, Green ([11]; 62 g ai/ha): 98
Plant response rating, Foxtail, Green ([11]; 125 g ai/ha): 98
Plant response rating, Sunflower ([12]; 16 g ai/ha): 0
Plant response rating, Sunflower ([12]; 31 g ai/ha): 0
Plant response rating, Sunflower ([12]; 62 g ai/ha): 0
Plant response rating, Sunflower ([12]; 125 g ai/ha): 0
Plant response rating, Galium ([13]; 62 g ai/ha): 0
Plant response rating, Galium ([13]; 125 g ai/ha): 0
Plant response rating, Velvetleaf ([14]; 16 g ai/ha): 0
Plant response rating, Velvetleaf ([14]; 31 g ai/ha): 0
Plant response rating, Velvetleaf ([14]; 62 g ai/ha): 0
Plant response rating, Velvetleaf ([14]; 125 g ai/ha): 0
Plant response rating, Crabgrass, Large ([15]; 16 g ai/ha): 0
Plant response rating, Crabgrass, Large ([15]; 31 g ai/ha): 70
Plant response rating, Crabgrass, Large ([15]; 62 g ai/ha): 90
Plant response rating, Crabgrass, Large ([15]; 125 g ai/ha): 100
Plant response rating, Ragweed ([16]; 16 g ai/ha): 0
Plant response rating, Ragweed ([16]; 31 g ai/ha): 0
Plant response rating, Ragweed ([16]; 62 g ai/ha): 0
Plant response rating, Ragweed ([16]; 125 g ai/ha): 0
Plant response rating, Corn (corn (Zea mays); 125 g ai/ha): 0
Plant response rating, Corn (corn (Zea mays); 500 g ai/ha): 40
Plant response rating, Pigweed ([17]; 16 g ai/ha): 0
Plant response rating, Pigweed ([17]; 31 g ai/ha): 100
Plant response rating, Pigweed ([17]; 62 g ai/ha): 100
Plant response rating, Pigweed ([17]; 125 g ai/ha): 100
Plant response rating, Cocklebur ([18]; 16 g ai/ha): 0
Plant response rating, Cocklebur ([18]; 31 g ai/ha): 0
Plant response rating, Cocklebur ([18]; 62 g ai/ha): 0
Plant response rating, Cocklebur ([18]; 125 g ai/ha): 0
Plant response rating, Bromegrass, Downy ([19]; 16 g ai/ha): 0
Plant response rating, Bromegrass, Downy ([19]; 31 g ai/ha): 0
Plant response rating, Bromegrass, Downy ([19]; 62 g ai/ha): 0
Plant response rating, Bromegrass, Downy ([19]; 125 g ai/ha): 20

CC1(C)CC(S(=O)(=O)Cc2c(C(F)(F)C(F)(F)F)nc3n(c2=O)CCCC3)=NO1 [Compound 21]
Plant response rating, Goosegrass ([1]; 16 g ai/ha): 50
Plant response rating, Goosegrass ([1]; 31 g ai/ha): 98
Plant response rating, Goosegrass ([1]; 62 g ai/ha): 100
Plant response rating, Goosegrass ([1]; 125 g ai/ha): 100
Plant response rating, Blackgrass ([2]; 16 g ai/ha): 40
Plant response rating, Blackgrass ([2]; 31 g ai/ha): 40
Plant response rating, Blackgrass ([2]; 62 g ai/ha): 50
Plant response rating, Blackgrass ([2]; 125 g ai/ha): 98
Plant response rating, Nutsedge, Yellow ([3]; 16 g ai/ha): 0
Plant response rating, Nutsedge, Yellow ([3]; 31 g ai/ha): 20
Plant response rating, Nutsedge, Yellow ([3]; 62 g ai/ha): 60
Plant response rating, Nutsedge, Yellow ([3]; 125 g ai/ha): 90
Plant response rating, Cupgrass, Woolly ([4]; 16 g ai/ha): 100
Plant response rating, Cupgrass, Woolly ([4]; 31 g ai/ha): 100
Plant response rating, Cupgrass, Woolly ([4]; 62 g ai/ha): 100
Plant response rating, Cupgrass, Woolly ([4]; 125 g ai/ha): 100
Plant response rating, Pigweed ([5]; 125 g ai/ha): 0
Plant response rating, Pigweed ([5]; 500 g ai/ha): 10
Plant response rating, Oat, Wild (wild oat (Avena fatua); 16 g ai/ha): 0
Plant response rating, Oat, Wild (wild oat (Avena fatua); 31 g ai/ha): 30
Plant response rating, Oat, Wild (wild oat (Avena fatua); 62 g ai/ha): 30
Plant response rating, Oat, Wild (wild oat (Avena fatua); 125 g ai/ha): 40
Plant response rating, Wheat ([6]; 16 g ai/ha): 0
Plant response rating, Wheat ([6]; 31 g ai/ha): 0
Plant response rating, Wheat ([6]; 62 g ai/ha): 0
Plant response rating, Wheat ([6]; 125 g ai/ha): 0
Plant response rating, Morningglory ([7]; 125 g ai/ha): 0
Plant response rating, Morningglory ([7]; 500 g ai/ha): 40
Plant response rating, Foxtail, Giant ([8]; 125 g ai/ha): 90
Plant response rating, Foxtail, Giant ([8]; 500 g ai/ha): 100
Plant response rating, Foxtail, Giant ([9]; 125 g ai/ha): 60
Plant response rating, Foxtail, Giant ([9]; 500 g ai/ha): 70
Plant response rating, Bermudagrass ([10]; 16 g ai/ha): 90
Plant response rating, Bermudagrass ([10]; 31 g ai/ha): 100
Plant response rating, Bermudagrass ([10]; 62 g ai/ha): 100
Plant response rating, Bermudagrass ([10]; 125 g ai/ha): 100
Plant response rating, Foxtail, Green ([11]; 16 g ai/ha): 0
Plant response rating, Foxtail, Green ([11]; 31 g ai/ha): 45
Plant response rating, Foxtail, Green ([11]; 62 g ai/ha): 100
Plant response rating, Foxtail, Green ([11]; 125 g ai/ha): 100
Plant response rating, Sunflower ([12]; 16 g ai/ha): 0
Plant response rating, Sunflower ([12]; 31 g ai/ha): 0
Plant response rating, Sunflower ([12]; 62 g ai/ha): 0
Plant response rating, Sunflower ([12]; 125 g ai/ha): 10
Plant response rating, Galium ([13]; 16 g ai/ha): 0
Plant response rating, Galium ([13]; 31 g ai/ha): 0
Plant response rating, Galium ([13]; 62 g ai/ha): 30
Plant response rating, Galium ([13]; 125 g ai/ha): 50
Plant response rating, Velvetleaf ([14]; 16 g ai/ha): 0
Plant response rating, Velvetleaf ([14]; 31 g ai/ha): 0
Plant response rating, Velvetleaf ([14]; 62 g ai/ha): 0
Plant response rating, Velvetleaf ([14]; 125 g ai/ha): 75
Plant response rating, Crabgrass, Large ([15]; 16 g ai/ha): 20
Plant response rating, Crabgrass, Large ([15]; 31 g ai/ha): 95
Plant response rating, Crabgrass, Large ([15]; 62 g ai/ha): 98
Plant response rating, Crabgrass, Large ([15]; 125 g ai/ha): 100
Plant response rating, Ragweed ([16]; 16 g ai/ha): 0
Plant response rating, Ragweed ([16]; 31 g ai/ha): 0
Plant response rating, Ragweed ([16]; 62 g ai/ha): 0
Plant response rating, Ragweed ([16]; 125 g ai/ha): 10
Plant response rating, Corn (corn (Zea mays); 125 g ai/ha): 0
Plant response rating, Corn (corn (Zea mays); 500 g ai/ha): 0
Plant response rating, Pigweed ([17]; 16 g ai/ha): 0
Plant response rating, Pigweed ([17]; 31 g ai/ha): 0
Plant response rating, Pigweed ([17]; 62 g ai/ha): 0
Plant response rating, Pigweed ([17]; 125 g ai/ha): 98
Plant response rating, Cocklebur ([18]; 16 g ai/ha): 0
Plant response rating, Cocklebur ([18]; 31 g ai/ha): 0
Plant response rating, Cocklebur ([18]; 62 g ai/ha): 0
Plant response rating, Cocklebur ([18]; 125 g ai/ha): 0
Plant response rating, Bromegrass, Downy ([19]; 16 g ai/ha): 0
Plant response rating, Bromegrass, Downy ([19]; 31 g ai/ha): 0
Plant response rating, Bromegrass, Downy ([19]; 62 g ai/ha): 0
Plant response rating, Bromegrass, Downy ([19]; 125 g ai/ha): 60
